From ChEMBL document CHEMBL1201861, “Genomics of Drug Sensitity in Cancer screening data, Wellcome Trust Sanger Institute”

How the values were obtained:
[1] = tested on: COR-L23; assay: cells; format: functional, cell-based; conditions: Homo sapiens;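 further: cell viability assay measuring how strongly compounds suppress growth of COR-L23 cells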
Description: SANGER: Inhibition of human COR-L23 cell growth in a cell viability assay.

[2] = tested on: DMS-153; assay: cells; format: functional, cell-based; conditions: Homo sapiens
Description: SANGER: Inhibition of human DMS-153 cell growth in a cell viability assay.

[3] = tested on: G-402; assay: cells; format: functional, cell-based; conditions: Homo sapiens
Description: SANGER: Inhibition of human G-402 cell growth in a cell viability assay.

[4] = tested on: GP5d; assay: cells; format: functional, cell-based; conditions: Homo sapiens;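 further: growth inhibition of human GP5d cells, read out with a cell viability assay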
Description: SANGER: Inhibition of human GP5d cell growth in a cell viability assay.

[5] = tested on: HCC1569; assay: cells; format: functional, cell-based; conditions: Homo sapiens;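 further: growth inhibition of human HCC1569 cells, read out with a cell viability assay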
Description: SANGER: Inhibition of human HCC1569 cell growth in a cell viability assay.

[6] = tested on: HEC-1; assay: cells; format: functional, cell-based; conditions: Homo sapiens;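 further: growth inhibition of the cell line, read out with a cell viability assay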
Description: SANGER: Inhibition of human HEC-1 cell growth in a cell viability assay.

[7] = tested on: HSC-3; assay: cells; format: functional, cell-based; conditions: Homo sapiens
Description: SANGER: Inhibition of human HSC-3 cell growth in a cell viability assay.

[8] = tested on: HT-1376; assay: cells; format: functional, cell-based; conditions: Homo sapiens
Description: SANGER: Inhibition of human HT-1376 cell growth in a cell viability assay.

[9] = tested on: HuO9; assay: cells; format: functional, cell-based; conditions: Homo sapiens;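 further: growth inhibition of HuO9 cells, read out with a cell viability assay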
Description: SANGER: Inhibition of human HuO9 cell growth in a cell viability assay.

[10] = tested on: IGROV-1; assay: cells; format: functional, cell-based; conditions: Homo sapiens;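 further: reduction of IGROV-1 cell growth, read out with a viability assay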
Description: SANGER: Inhibition of human IGROV-1 cell growth in a cell viability assay.

[11] = tested on: IMR-5; assay: cells; format: functional, cell-based; conditions: Homo sapiens;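 further: growth inhibition of human IMR-5 cells, read out with a cell viability assay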
Description: SANGER: Inhibition of human IMR-5 cell growth in a cell viability assay.

[12] = tested on: JEG-3; assay: cells; format: functional, cell-based; conditions: Homo sapiens;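 further: growth inhibition of human JEG-3 cells, read out with a cell viability assay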
Description: SANGER: Inhibition of human JEG-3 cell growth in a cell viability assay.

[13] = tested on: KARPAS-422; assay: cells; format: functional, cell-based; conditions: Homo sapiens
Description: SANGER: Inhibition of human KARPAS-422 cell growth in a cell viability assay.

[14] = tested on: Kasumi 1; assay: cells; format: functional, cell-based; conditions: Homo sapiens;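 further: growth inhibition of human Kasumi-1 cells, read out by a cell viability assay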
Description: SANGER: Inhibition of human KASUMI-1 cell growth in a cell viability assay.

[15] = tested on: KYSE-410; assay: cells; format: functional, cell-based; conditions: Homo sapiens;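 further: growth inhibition of KYSE-410 cells, measured through a cell viability readout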
Description: SANGER: Inhibition of human KYSE-410 cell growth in a cell viability assay.

[16] = tested on: KYSE-520 cell line; assay: cells; format: functional, cell-based; conditions: Homo sapiens;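 further: growth inhibition of human KYSE-520 cells, read out with a viability assay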
Description: SANGER: Inhibition of human KYSE-520 cell growth in a cell viability assay.

[17] = tested on: LB996-RCC; assay: cells; format: functional, cell-based; conditions: Homo sapiens
Description: SANGER: Inhibition of human LB996-RCC cell growth in a cell viability assay.

[18] = tested on: LK-2; assay: cells; format: functional, cell-based; conditions: Homo sapiens;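 further: growth inhibition of LK-2 cells, read out with a viability assay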
Description: SANGER: Inhibition of human LK-2 cell growth in a cell viability assay.

[19] = tested on: LN-405; assay: cells; format: functional, cell-based; conditions: Homo sapiens
Description: SANGER: Inhibition of human LN-405 cell growth in a cell viability assay.

[20] = tested on: LP-1; assay: cells; format: functional, cell-based; conditions: Homo sapiens;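 further: growth inhibition of human LP-1 cells, with the read-out taken from a cell viability assay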
Description: SANGER: Inhibition of human LP-1 cell growth in a cell viability assay.

[21] = tested on: LU-99A; assay: cells; format: functional, cell-based; conditions: Homo sapiens;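 further: growth inhibition of LU-99A cells, read out with a cell viability assay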
Description: SANGER: Inhibition of human LU-99A cell growth in a cell viability assay.

[22] = tested on: M14; assay: cells; format: functional, cell-based; conditions: Homo sapiens;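 further: growth inhibition of M14 cells, read out with a cell viability assay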
Description: SANGER: Inhibition of human M14 cell growth in a cell viability assay.

[23] = tested on: MCF7; assay: cells; format: functional, cell-based; conditions: Homo sapiens;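 further: growth inhibition of human MCF7 cells, read out with a cell viability assay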
Description: SANGER: Inhibition of human MCF7 cell growth in a cell viability assay.

[24] = tested on: MKN-28; assay: cells; format: functional, cell-based; conditions: Homo sapiens;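 further: cell viability assay read-out, IC50 reflects suppression of growth of human MKN-28 cells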
Description: SANGER: Inhibition of human MKN28 cell growth in a cell viability assay.

[25] = tested on: NCI-H1437; assay: cells; format: functional, cell-based; conditions: Homo sapiens;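 further: growth inhibition of human NCI-H1437 cells, read out by a cell viability assay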
Description: SANGER: Inhibition of human NCI-H1437 cell growth in a cell viability assay.

[26] = tested on: NCI-H1694; assay: cells; format: functional, cell-based; conditions: Homo sapiens;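 further: cell viability assay measuring inhibition of growth in human NCI-H1694 cells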
Description: SANGER: Inhibition of human NCI-H1694 cell growth in a cell viability assay.

[27] = tested on: NCI-H2342; assay: cells; format: functional, cell-based; conditions: Homo sapiens;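 further: growth inhibition of the cancer cell line, determined with a cell viability assay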
Description: SANGER: Inhibition of human NCI-H2342 cell growth in a cell viability assay.

[28] = tested on: NCI-H28; assay: cells; format: functional, cell-based; conditions: Homo sapiens;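 further: growth inhibition of human NCI-H28 cells, read out as cell viability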
Description: SANGER: Inhibition of human NCI-H28 cell growth in a cell viability assay.

[29] = tested on: NCI-H441; assay: cells; format: functional, cell-based; conditions: Homo sapiens;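 further: growth inhibition of NCI-H441 cells, read out with a cell viability assay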
Description: SANGER: Inhibition of human NCI-H441 cell growth in a cell viability assay.

[30] = tested on: NCI-H661; assay: cells; format: functional, cell-based; conditions: Homo sapiens;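 further: cell viability assay read-out, IC50 being the concentration that inhibits growth of the cells by half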
Description: SANGER: Inhibition of human NCI-H661 cell growth in a cell viability assay.

[31] = tested on: NCI-H719; assay: cells; format: functional, cell-based; conditions: Homo sapiens;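 further: growth inhibition of the cultured cell line, read out with a viability assay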
Description: SANGER: Inhibition of human NCI-H719 cell growth in a cell viability assay.

[32] = tested on: OPM-2; assay: cells; format: functional, cell-based; conditions: Homo sapiens;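 further: growth of OPM-2 cells measured with a viability assay, IC50 for suppression of proliferation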
Description: SANGER: Inhibition of human OPM-2 cell growth in a cell viability assay.

[33] = tested on: OVCAR-3; assay: cells; format: functional, cell-based; conditions: Homo sapiens;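 further: growth inhibition of human OVCAR-3 cells, determined by a cell viability assay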
Description: SANGER: Inhibition of human OVCAR-3 cell growth in a cell viability assay.

[34] = tested on: PA-1; assay: cells; format: functional, cell-based; conditions: Homo sapiens;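 further: IC50 for suppression of PA-1 cell proliferation, determined with a cell viability read-out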
Description: SANGER: Inhibition of human PA-1 cell growth in a cell viability assay.

[35] = tested on: PANC-03-27; assay: cells; format: functional, cell-based; conditions: Homo sapiens
Description: SANGER: Inhibition of human PANC-03-27 cell growth in a cell viability assay.

[36] = tested on: PC-14; assay: cells; format: functional, cell-based; conditions: Homo sapiens;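 further: cell viability assay measuring inhibition of PC-14 cell growth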
Description: SANGER: Inhibition of human PC-14 cell growth in a cell viability assay.

[37] = tested on: PC-3; assay: cells; format: functional, cell-based; conditions: Homo sapiens;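 further: cell viability assay measuring growth inhibition of PC-3 cells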
Description: SANGER: Inhibition of human PC-3 cell growth in a cell viability assay.

[38] = tested on: RL; assay: cells; format: functional, cell-based; conditions: Homo sapiens
Description: SANGER: Inhibition of human RL cell growth in a cell viability assay.

[39] = tested on: RPMI-2650; assay: cells; format: functional, cell-based; conditions: Homo sapiens
Description: SANGER: Inhibition of human RPMI-2650 cell growth in a cell viability assay.

[40] = tested on: S-117; assay: cells; format: functional, cell-based; conditions: Homo sapiens
Description: SANGER: Inhibition of human S-117 cell growth in a cell viability assay.

[41] = tested on: SAS; assay: cells; format: functional, cell-based; conditions: Homo sapiens;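 further: growth inhibition of SAS cells, read out with a cell viability assay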
Description: SANGER: Inhibition of human SAS cell growth in a cell viability assay.

[42] = tested on: SCC-4; assay: cells; format: functional, cell-based; conditions: Homo sapiens;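 further: growth inhibition of human SCC-4 cells, read out as cell viability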
Description: SANGER: Inhibition of human SCC-4 cell growth in a cell viability assay.

[43] = tested on: SK-LU-1; assay: cells; format: functional, cell-based; conditions: Homo sapiens;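 further: cell viability assay measuring growth inhibition of human SK-LU-1 cells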
Description: SANGER: Inhibition of human SK-LU-1 cell growth in a cell viability assay.

[44] = tested on: SK-MEL-28; assay: cells; format: functional, cell-based; conditions: Homo sapiens;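 further: growth inhibition of human SK-MEL-28 cells, read out with a cell viability assay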
Description: SANGER: Inhibition of human SK-MEL-28 cell growth in a cell viability assay.

[45] = tested on: SK-MEL3; assay: cells; format: functional, cell-based, SK-MEL-3; conditions: Homo sapiens;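 further: growth inhibition of human SK-MEL-3 cells, read out with a cell viability assay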
Description: SANGER: Inhibition of human SK-MEL-3 cell growth in a cell viability assay.

[46] = tested on: SW1990; assay: cells; format: functional, cell-based; conditions: Homo sapiens
Description: SANGER: Inhibition of human SW1990 cell growth in a cell viability assay.

[47] = tested on: SW626; assay: cells; format: functional, cell-based; conditions: Homo sapiens;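 further: growth inhibition of SW626 cells, measured with a cell viability assay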
Description: SANGER: Inhibition of human SW626 cell growth in a cell viability assay.

[48] = tested on: SW780; assay: cells; format: functional, cell-based; conditions: Homo sapiens;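 further: growth inhibition of the cells, read out with a cell viability assay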
Description: SANGER: Inhibition of human SW780 cell growth in a cell viability assay.

[49] = tested on: SAOS-2; assay: cells; format: functional, cell-based; conditions: Homo sapiens;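 further: growth inhibition of human Saos-2 cells determined by a cell viability assay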
Description: SANGER: Inhibition of human Saos-2 cell growth in a cell viability assay.

[50] = tested on: 5637; assay: cells; format: functional, cell-based; conditions: Homo sapiens
Description: SANGER: Inhibition of human 5637 cell growth in a cell viability assay.

[51] = tested on: 639-V; assay: cells; format: functional, cell-based; conditions: Homo sapiens;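 further: growth inhibition of 639-V cells, read out with a cell viability assay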
Description: SANGER: Inhibition of human 639-V cell growth in a cell viability assay.

[52] = tested on: 647-V; assay: cells; format: functional, cell-based; conditions: Homo sapiens;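 further: growth inhibition of 647-V cells, read out with a cell viability assay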
Description: SANGER: Inhibition of human 647-V cell growth in a cell viability assay.

[53] = tested on: 8505C; assay: cells; format: functional, cell-based; conditions: Homo sapiens
Description: SANGER: Inhibition of human 8505C cell growth in a cell viability assay.

[54] = tested on: A-375; assay: cells; format: functional, cell-based; conditions: Homo sapiens;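 further: growth inhibition of A375 cells, read out with a cell viability assay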
Description: SANGER: Inhibition of human A375 cell growth in a cell viability assay.

[55] = tested on: ACHN; assay: cells; format: functional, cell-based; conditions: Homo sapiens;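 further: cell viability read-out used to gauge how strongly growth of human ACHN cells is suppressed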
Description: SANGER: Inhibition of human ACHN cell growth in a cell viability assay.

[56] = tested on: BC1 cell line; assay: SANGER: Inhibition of human BC-1 cell growth in a cell viability assay.; format: functional, cell-based
[57] = tested on: BL-70; assay: SANGER: Inhibition of human BL-70 cell growth in a cell viability assay.; format: functional, cell-based
[58] = tested on: CA46; assay: cells; format: functional, cell-based; conditions: Homo sapiens;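 further: growth inhibition of human CA46 cells, read out by a cell viability assay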
Description: SANGER: Inhibition of human CA46 cell growth in a cell viability assay.

[59] = tested on: CAL-12T; assay: cells; format: functional, cell-based, Homo sapiens; conditions: Homo sapiens, CAL-12T;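 further: growth inhibition of human CAL-12T cells, read out with a cell viability assay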
Description: SANGER: Inhibition of human CAL-12T cell growth in a cell viability assay.

[60] = tested on: CAMA-1; assay: cells; format: functional, cell-based; conditions: Homo sapiens;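 further: growth inhibition of CAMA-1 cells, read out with a cell viability assay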
Description: SANGER: Inhibition of human CAMA-1 cell growth in a cell viability assay.

[61] = tested on: CESS; assay: SANGER: Inhibition of human CESS cell growth in a cell viability assay.; format: functional, cell-based
[62] = tested on: CHL-1; assay: cells; format: functional, cell-based; conditions: Homo sapiens;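 further: cell growth inhibition, read out with a cell viability assay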
Description: SANGER: Inhibition of human CHL-1 cell growth in a cell viability assay.

[63] = tested on: CHP-126; assay: cells; format: functional, cell-based; conditions: Homo sapiens
Description: SANGER: Inhibition of human CHP-126 cell growth in a cell viability assay.

[64] = tested on: COLO-678; assay: cells; format: functional, cell-based; conditions: Homo sapiens
Description: SANGER: Inhibition of human COLO-678 cell growth in a cell viability assay.

[65] = tested on: COLO-680N; assay: cells; format: functional, cell-based; conditions: Homo sapiens;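 further: cell viability assay used to measure inhibition of COLO-680N cell growth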
Description: SANGER: Inhibition of human COLO-680N cell growth in a cell viability assay.

`Fc1cc(-c2cc[nH]/c(=N/c3ccc(-n4cnc(N5CCOCC5)n4)cc3)n2)cc(N2CCOCC2)c1` gave an IC50 [1] of 1000 nM, an IC50 [2] of 1240 nM and an IC50 [3] of 258 nM. For the same molecule, the IC50 [4] was 514 nM, the IC50 [5] was 412 nM and the IC50 [6] was 2150 nM. For the same molecule, the IC50 [7] was 713 nM, the IC50 [8] was 1460 nM and the IC50 [9] was 638 nM. The IC50 [10] was 97.7 nM, the IC50 [11] was 2050 nM and the IC50 [12] was 705 nM. It also gave an IC50 [13] of 406 nM, an IC50 [14] of 340 nM and an IC50 [15] of 1280 nM. For the same molecule, the IC50 [16] was 448 nM, the IC50 [17] was 522 nM and the IC50 [18] was 849 nM. It also gave an IC50 [19] of 991 nM, an IC50 [20] of 483 nM and an IC50 [21] of 740 nM. The IC50 [22] was 342 nM, the IC50 [23] was 389 nM and the IC50 [24] was 301 nM. For the same molecule, the IC50 [25] was 243 nM, the IC50 [26] was 1500 nM and the IC50 [27] was 362 nM. It also gave an IC50 [28] of 340 nM, an IC50 [29] greater than 5.12 µM and an IC50 [30] of 501 nM. It also gave an IC50 [31] of 2240 nM, an IC50 [32] of 514 nM and an IC50 [33] of 567 nM. For the same molecule, the IC50 [34] was 102 nM, the IC50 [35] was 271 nM and the IC50 [36] was 877 nM. It also gave an IC50 [37] of 4.55 µM, an IC50 [38] of 1590 nM and an IC50 [39] of 224 nM. It also gave an IC50 [40] greater than 5.12 µM, an IC50 [41] of 1940 nM and an IC50 [42] of 1250 nM. The IC50 [43] was 987 nM, the IC50 [44] was greater than 5.12 µM and the IC50 [45] was 877 nM. The IC50 [46] was 1100 nM, the IC50 [47] was 1090 nM and the IC50 [48] was 1630 nM. The IC50 [49] was 1780 nM, the IC50 [50] was 5.04 µM and the IC50 [51] was 220 nM. It also gave an IC50 [52] of 401 nM, an IC50 [53] of 1260 nM and an IC50 [54] of 623 nM. The IC50 [55] was 886 nM, the IC50 [56] was 491 nM and the IC50 [57] was 252 nM. The IC50 [58] was 333 nM, the IC50 [59] was 2110 nM and the IC50 [60] was greater than 5.12 µM. It also gave an IC50 [61] of 341 nM, an IC50 [62] of 490 nM and an IC50 [63] of 608 nM. It also gave an IC50 [64] of 3.65 µM and an IC50 [65] of 565 nM.
